Assay results published in patent US20250230193A1, “CYCLIC COMPOUND HAVING SELECTIVE KRAS INHIBITORY EFFECT ON HRAS AND NRAS” (CHUGAI SEIYAKU KABUSHIKI KAISHA, priority 2022, published 2025).
Where a SMILES comes first, the peptide text is derived from it. Bridges are numbered along the chain shown (N, C = ends). [ ]: non-standard residue; d: D form. The star is where a group is joined. hPhe(3-Cl-4-CF3) = N[C@@H](CCc1ccc(C(F)(F)F)c(Cl)c1)C(=O)O; NPrPhe(4-CF3) = CCCN[C@@H](Cc1ccc(C(F)(F)F)cc1)C(=O)O; NEtPhe(4-CF3) = CCN[C@@H](Cc1ccc(C(F)(F)F)cc1)C(=O)O; hPhe(3,4-Cl2) = N[C@@H](CCc1ccc(Cl)c(Cl)c1)C(=O)O; NMeGly(cPent) = CN[C@H](C(=O)O)C1CCCC1; Hyp = O=C(O)[C@@H]1C[C@@H](O)CN1; NMeD = CN[C@@H](CC(=O)O)C(=O)O; NMeL = CN[C@@H](CC(C)C)C(=O)O; Ac6c = NC1(C(=O)O)CCCCC1; Morpholide = C1CN(*)CCO1; Ac5c = NC1(C(=O)O)CCCC1; Ac3c = NC1(C(=O)O)CC1; Aib = CC(C)(N)C(=O)O; Sar = CNCC(=O)O

How the values were obtained:
[1] = molecular target: GDP-bound HRAS wild-type protein (Homo sapiens, UniProt P01112); assay: Binding to HRAS by surface plasmon resonance (SPR), Single Cycle Kinetics; settings: KD ratio HRAS/KRAS, SPR
[2] = molecular target: GDP-bound NRAS wild-type protein (Homo sapiens, UniProt P01111); assay: Binding to NRAS by surface plasmon resonance (SPR), Single Cycle Kinetics; settings: KD ratio NRAS/KRAS, SPR
Chain of GDP-bound NRAS wild-type protein (P01111 whole entry): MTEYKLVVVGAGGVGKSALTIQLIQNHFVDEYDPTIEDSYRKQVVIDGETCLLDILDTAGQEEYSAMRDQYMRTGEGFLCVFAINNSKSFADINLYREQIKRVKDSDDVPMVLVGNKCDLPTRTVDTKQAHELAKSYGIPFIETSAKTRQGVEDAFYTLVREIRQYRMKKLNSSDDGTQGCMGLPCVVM

Chain of GDP-bound HRAS wild-type protein (P01112 whole entry): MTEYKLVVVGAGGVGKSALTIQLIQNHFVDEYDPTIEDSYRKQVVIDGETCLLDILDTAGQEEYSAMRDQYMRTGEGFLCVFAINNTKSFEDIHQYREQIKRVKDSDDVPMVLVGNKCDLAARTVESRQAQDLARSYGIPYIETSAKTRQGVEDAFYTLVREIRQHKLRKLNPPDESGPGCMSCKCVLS

Row | Structure (SMILES) | HRAS/KRAS (ratio of KD for GDP-bound HRAS wild-type to KD for KRAS) [1] | NRAS/KRAS (ratio of KD for GDP-bound NRAS wild-type to KD for KRAS) [2]
1 | CCCN1C(=O)CN(C)C(=O)CN(C)C(=O)[C@H]([C@@H](C)CC)NC(=O)[C@H](CC(C)C)N(C)C(=O)C[C@@H](C(=O)N2CCOCC2)N(C)C(=O)[C@H](C2CCCC2)N(C)C(=O)C2(CCCCC2)NC(=O)[C@@H]2CCCN2C(=O)[C@H](CCc2ccc(C(F)(F)F)c(Cl)c2)NC(=O)CN(C)C(=O)[C@@H]1Cc1ccc(C(F)(F)F)cc1 [PP0231] ([NMeL]I[Sar][Sar][NPrPhe(4-CF3)][Sar][hPhe(3-Cl-4-CF3)]P[Ac6c][NMeGly(cPent)][NMeD]-Morpholide; lactam N-11) | C (A compound having a KD ratio of 0.1 or more and less than 3 is denoted as C) | B (a compound having 3 or more and less than 10 is denoted as B)
2 | CCCN1C(=O)CN(C)C(=O)CN(C)C(=O)[C@H]([C@@H](C)CC)NC(=O)[C@H](CC(C)C)N(C)C(=O)C[C@@H](C(=O)N2CCOCC2)N(C)C(=O)[C@H](C2CCCC2)N(C)C(=O)C2(CCCC2)NC(=O)[C@@H]2CCCN2C(=O)[C@H](CCc2ccc(Cl)c(Cl)c2)NC(=O)CN(C)C(=O)[C@@H]1Cc1ccc(C(F)(F)F)cc1 [PP0232] ([NMeL]I[Sar][Sar][NPrPhe(4-CF3)][Sar][hPhe(3,4-Cl2)]P[Ac5c][NMeGly(cPent)][NMeD]-Morpholide; lactam N-11) | B (a compound having 3 or more and less than 10 is denoted as B) | B (a compound having 3 or more and less than 10 is denoted as B)
3 | CCCN1C(=O)CN(C)C(=O)CN(C)C(=O)[C@H]([C@@H](C)CC)NC(=O)[C@H](CC(C)C)N(C)C(=O)C[C@@H](C(=O)N2CCOCC2)N(C)C(=O)[C@H](C2CCCC2)N(C)C(=O)C2(CCCC2)NC(=O)[C@@H]2C[C@@H](OCC)CN2C(=O)[C@H](CCc2ccc(C(F)(F)F)c(Cl)c2)NC(=O)CN(C)C(=O)[C@@H]1Cc1ccc(C(F)(F)F)cc1 [PP0233] ([NMeL]I[Sar][Sar][NPrPhe(4-CF3)][Sar][hPhe(3-Cl-4-CF3)][Hyp](Et)[Ac5c][NMeGly(cPent)][NMeD]-Morpholide; lactam N-11) | C (A compound having a KD ratio of 0.1 or more and less than 3 is denoted as C) | B (a compound having 3 or more and less than 10 is denoted as B)
4 | CC[C@H](C)[C@@H]1NC(=O)[C@H](CC(C)C)N(C)C(=O)C[C@@H](C(=O)N2CCOCC2)N(C)C(=O)[C@H](C2CCCC2)N(C)C(=O)C2(CC2)NC(=O)[C@@H]2CCCN2C(=O)[C@H](CCc2ccc(C(F)(F)F)c(Cl)c2)NC(=O)CN(C)C(=O)[C@H](Cc2ccc(C(F)(F)F)cc2)N(CC)C(=O)CN(C)C(=O)CN(C)C1=O [PP0234] ([NMeL]I[Sar][Sar][NEtPhe(4-CF3)][Sar][hPhe(3-Cl-4-CF3)]P[Ac3c][NMeGly(cPent)][NMeD]-Morpholide; lactam N-11) | C (A compound having a KD ratio of 0.1 or more and less than 3 is denoted as C) | B (a compound having 3 or more and less than 10 is denoted as B)
5 | CC[C@H](C)[C@@H]1NC(=O)[C@H](CC(C)C)N(C)C(=O)C[C@@H](C(=O)N2CCOCC2)N(C)C(=O)[C@H](C2CCCC2)N(C)C(=O)C(C)(C)NC(=O)[C@@H]2CCCN2C(=O)[C@H](CCc2ccc(C(F)(F)F)c(Cl)c2)NC(=O)CN(C)C(=O)[C@H](Cc2ccc(C(F)(F)F)cc2)N(CC)C(=O)CN(C)C(=O)CN(C)C1=O [PP0235] ([NMeL]I[Sar][Sar][NEtPhe(4-CF3)][Sar][hPhe(3-Cl-4-CF3)]P[Aib][NMeGly(cPent)][NMeD]-Morpholide; lactam N-11) | C (A compound having a KD ratio of 0.1 or more and less than 3 is denoted as C) | B (a compound having 3 or more and less than 10 is denoted as B)
6 | CC[C@H](C)[C@@H]1NC(=O)[C@H](CC(C)C)N(C)C(=O)C[C@@H](C(=O)N2CCOCC2)N(C)C(=O)[C@H](C2CCCC2)N(C)C(=O)C2(CCCCC2)NC(=O)[C@@H]2CCCN2C(=O)[C@H](CCc2ccc(C(F)(F)F)c(Cl)c2)NC(=O)CN(C)C(=O)[C@H](Cc2ccc(C(F)(F)F)cc2)N(CC)C(=O)CN(C)C(=O)CN(C)C1=O [PP0236] ([NMeL]I[Sar][Sar][NEtPhe(4-CF3)][Sar][hPhe(3-Cl-4-CF3)]P[Ac6c][NMeGly(cPent)][NMeD]-Morpholide; lactam N-11) | C (A compound having a KD ratio of 0.1 or more and less than 3 is denoted as C) | B (a compound having 3 or more and less than 10 is denoted as B)
